Experimental data as given in patent publication US20230365592A1 (Agios Pharmaceuticals, Inc., priority 2022, published 2023).

Molecular target: T1, human PAH with the R408W mutation (Homo sapiens, UniProt P00439, R408W)
T1 construct: expressed in transfected cells
T1 sequence (P00439 1-452 R408W): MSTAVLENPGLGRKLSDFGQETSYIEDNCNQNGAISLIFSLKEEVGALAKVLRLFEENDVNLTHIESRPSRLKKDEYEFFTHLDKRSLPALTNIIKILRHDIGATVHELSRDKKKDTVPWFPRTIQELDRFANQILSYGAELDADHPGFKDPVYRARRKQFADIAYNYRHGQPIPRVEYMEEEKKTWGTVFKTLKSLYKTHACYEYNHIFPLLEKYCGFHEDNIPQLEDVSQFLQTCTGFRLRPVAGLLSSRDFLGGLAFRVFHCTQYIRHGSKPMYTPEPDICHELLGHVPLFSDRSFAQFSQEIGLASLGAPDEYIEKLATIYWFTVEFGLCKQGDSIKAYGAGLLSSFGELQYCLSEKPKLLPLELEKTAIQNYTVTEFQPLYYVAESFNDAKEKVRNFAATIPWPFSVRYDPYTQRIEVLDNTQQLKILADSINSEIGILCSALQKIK
Assay: Cell Based Phenylalanine Flux Assay;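 further: after compound treatment, cells received sepiapterin plus isotope-labelled Phenylalanine for 4 hours, then labelled Tyrosine in the medium was quantified, 10-point 2-fold dilution series run in duplicate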
Conditions: A375 cells expressing human R408W PAH; 24 hrs compound incubation; 13C-Tyrosine by LC-MS; average where tested multiple times; read-out: AC50

Row | AC50 [nM] | SMILES
1 | 500 to 1000 | Cn1nccc1C(=O)N1CCc2[nH]cnc2[C@H]1c1cc2ccccn2n1 [Example 660, (S)-(1-methyl-1H-pyrazol-5-yl)(4-(pyrazolo[1,5-a]pyridin-2-yl)-6,7-dihydro-1H-imidazo(4,5-c]pyridin-5(4H)-yl)methanone]
2 | > 5000 | Cn1cc(C(=O)N2CCc3[nH]cnc3[C@@H]2c2cc3ccccn3n2)c(Cl)n1 [Example 664, (R)-(3-chloro-1-methyl-1H-pyrazol-4-yl)(4-(pyrazolo[1,5-a]pyridin-2-yl)-6,7-dihydro-1H-imidazo[4,5-c]pyridin-5(4H)-yl)methanone]
3 | < 500 | Cn1cc(C(=O)N2CCc3[nH]cnc3[C@H]2c2cc3ccccn3n2)c(Cl)n1 [Example 665, (S)-(3-chloro-1-methyl-1H-pyrazol-4-yl)(4-(pyrazolo[1,5-a]pyridin-2-yl)-6,7-dihydro-1H-imidazo[4,5-c]pyridin-5(4H)-yl)methanone]
4 | 500 to 1000 | O=C(c1nnc(-c2ccn(C(F)F)n2)o1)N1CCc2[nH]cnc2[C@H]1c1cc2ccccn2n1 [Example 666, (S)-(5-(1-(difluoromethyl)-1H-pyrazol-3-yl)-1,3,4-oxadiazol-2-yl)(4-(pyrazolo[1,5-a]pyridin-2-yl)-6,7-dihydro-1H-imidazo[4,5-c]pyridin-5(4H)-yl)methanone]
5 | < 500 | CC(C)(O)c1nc(C(F)F)c(C(=O)N2CCc3[nH]cnc3[C@H]2c2cc3ccccn3n2)o1 [Example 670, (S)-(4-(difluoromethyl)-2-(2-hydroxypropan-2-yl)oxazol-5-yl)(4-(pyrazolo[1,5-a]pyridin-2-yl)-6,7-dihydro-1H-imidazo[4,5-c]pyridin-5(4H)-yl)methanone]
6 | > 5000 | CC(C)(O)c1nc(C(F)F)c(C(=O)N2CCc3[nH]cnc3[C@@H]2c2cc3ccccn3n2)o1 [Example 671, (R)-(4-(difluoromethyl)-2-(2-hydroxypropan-2-yl)oxazol-5-yl)(4-(pyrazolo[1,5-a]pyridin-2-yl)-6,7-dihydro-1H-imidazo[4,5-c]pyridin-5(4H)-yl)methanone]
7 | > 5000 | Cc1ccc(-c2nnc(C(=O)N3CCc4[nH]cnc4[C@@H]3c3cc4ccccn4n3)o2)nc1 [Example 672, (R)-(5-(5-methylpyridin-2-yl)-1,3,4-oxadiazol-2-yl)(4-(pyrazolo[1,5-a]pyridin-2-yl)-6,7-dihydro-1H-imidazo[4,5-c]pyridin-5(4H)-yl)methanone]
8 | < 500 | CC(C)(O)c1nc(Br)c(C(=O)N2CCc3[nH]cnc3[C@H]2c2cc3ccccn3n2)o1 [Example 676, (S)-(4-bromo-2-(2-hydroxypropan-2-yl)oxazol-5-yl)(4-(pyrazolo[1,5-a]pyridin-2-yl)-6,7-dihydro-1H-imidazo[4,5-c]pyridin-5(4H)-yl)methanone]
9 | > 5000 | CC(C)(O)c1nc(Br)c(C(=O)N2CCc3[nH]cnc3[C@@H]2c2cc3ccccn3n2)o1 [Example 677, (R)-(4-bromo-2-(2-hydroxypropan-2-yl)oxazol-5-yl)(4-(pyrazolo[1,5-a]pyridin-2-yl)-6,7-dihydro-1H-imidazo[4,5-c]pyridin-5(4H)-yl)methanone]
10 | 500 to 1000 | N#Cc1ncoc1C(=O)N1CCc2[nH]cnc2[C@H]1c1cc2ccc(Br)cn2n1 [Example 682, (S)-5-(4-(6-bromopyrazolo[1,5-a]pyridin-2-yl)-4,5,6,7-tetrahydro-1H-imidazo[4,5-c]pyridine-5-carbonyl)oxazole-4-carbonitrile]
11 | 1000 to 5000 | N#Cc1ncoc1C(=O)N1CCc2[nH]cnc2[C@@H]1c1cc2c(Cl)cccn2n1 [Example 687, (R)-5-(4-(4-chloropyrazolo[1,5-a]pyridin-2-yl)-4,5,6,7-tetrahydro-1H-imidazo[4,5-c]pyridine-5-carbonyl)oxazole-4-carbonitrile]

Further lines, the compound ahead of its results:

Row | SMILES | AC50 [nM]
12 | Cn1ccc(-c2nnc(C(=O)N3CCc4[nH]cnc4[C@@H]3c3cc4ccccn4n3)o2)n1 [Example 659, (R)-(5-(1-methyl-1H-pyrazol-3-yl)-1,3,4-oxadiazol-2-yl)(4-(pyrazolo[1,5-a]pyridin-2-yl)-6,7-dihydro-1H-imidazo[4,5-c]pyridin-5(4H)-yl)methanone] | 1000 to 5000
13 | Cn1nccc1C(=O)N1CCc2[nH]cnc2[C@@H]1c1cc2ccccn2n1 [Example 661, (R)-(1-methyl-1H-pyrazol-5-yl)(4-(pyrazolo[1,5-a]pyridin-2-yl)-6,7-dihydro-1H-imidazo[4,5-c]pyridin-5(4H)-yl)methanone] | > 5000
14 | Cn1cc(C(=O)N2CCc3[nH]cnc3[C@H]2c2cc3ccccn3n2)c(C(F)F)n1 [Example 662, (S)-(3-(difluoromethyl)-1-methyl-1H-pyrazol-4-yl)(4-(pyrazolo[1,5-a]pyridin-2-yl)-6,7-dihydro-1H-imidazo[4,5-c]pyridin-5(4H)-yl)methanone] | < 500
15 | Cn1cc(C(=O)N2CCc3[nH]cnc3[C@@H]2c2cc3ccccn3n2)c(C(F)F)n1 [Example 663, (R)-(3-(difluoromethyl)-1-methyl-1H-pyrazol-4-yl)(4-(pyrazolo[1,5-a]pyridin-2-yl)-6,7-dihydro-1H-imidazo[4,5-c]pyridin-5(4H)-yl)methanone] | 1000 to 5000
16 | O=C(c1nnc(-c2ccn(C(F)F)n2)o1)N1CCc2[nH]cnc2[C@@H]1c1cc2ccccn2n1 [Example 667, (R)-(5-(1-(difluoromethyl)-1H-pyrazol-3-yl)-1,3,4-oxadiazol-2-yl)(4-(pyrazolo[1,5-a]pyridin-2-yl)-6,7-dihydro-1H-imidazo[4,5-c)pyridin-5(4H)-yl)methanone] | > 5000
17 | O=C(c1nnc(-c2cc(C(F)(F)F)ccn2)o1)N1CCc2[nH]cnc2[C@@H]1c1cc2ccccn2n1 [Example 668, (R)-(4-(pyrazolo[1,5-a]pyridin-2-yl)-6,7-dihydro-1H-imidazo[4,5-c]pyridin-5(4H)-yl)(5-(4-(trifluoromethyl)pyridin-2-yl)-1,3,4-oxadiazol-2-yl)methanone] | > 5000
18 | O=C(c1nnc(-c2cc(C(F)(F)F)ccn2)o1)N1CCc2[nH]cnc2[C@H]1c1cc2ccccn2n1 [Example 669, (S)-(4-(pyrazolo[1,5-a]pyridin-2-yl)-6,7-dihydro-1H-imidazo[4,5-c]pyridin-5(4H)-yl)(5-(4-(trifluoromethyl)pyridin-2-yl)-1,3,4-oxadiazol-2-yl)methanone] | < 500
19 | Cc1ccc(-c2nnc(C(=O)N3CCc4[nH]cnc4[C@H]3c3cc4ccccn4n3)o2)nc1 [Example 673, (S)-(5-(5-methylpyridin-2-yl)-1,3,4-oxadiazol-2-yl)(4-(pyrazolo[1,5-a]pyridin-2-yl)-6,7-dihydro-1H-imidazo[4,5-c]pyridin-5(4H)-yl)methanone] | 500 to 1000
20 | O=C(c1cn(-c2ccccn2)nc1Cl)N1CCc2[nH]cnc2[C@H]1c1cc2ccccn2n1 [Example 674, (S)-(3-chloro-1-(pyridin-2-yl)-1H-pyrazol-4-yl)(4-(pyrazolo[1,5-a]pyridin-2-yl)-6,7-dihydro-1H-imidazo[4,5-c]pyridin-5(4H)-yl)methanone] | 1000 to 5000
21 | O=C(c1cn(-c2ccccn2)nc1Cl)N1CCc2[nH]cnc2[C@@H]1c1cc2ccccn2n1 [Example 675, (R)-(3-chloro-1-(pyridin-2-yl)-1H-pyrazol-4-yl)(4-(pyrazolo[1,5-a]pyridin-2-yl)-6,7-dihydro-1H-imidazo[4,5-c]pyridin-5(4H)-yl)methanone] | > 5000
22 | Cn1cc(-c2nnc(C(=O)N3CCc4[nH]cnc4[C@H]3c3cc4ccccn4n3)o2)c(C(F)(F)F)n1 [Example 678, (S)-(5-(1-methyl-3-(trifluoromethyl)-1H-pyrazol-4-yl)-1,3,4-oxadiazol-2-yl)(4-(pyrazolo[1,5-a]pyridin-2-yl)-6,7-dihydro-1H-imidazo[4,5-c]pyridin-5(4H)-yl)methanone] | 1000 to 5000
23 | Cn1cc(-c2nnc(C(=O)N3CCc4[nH]cnc4[C@@H]3c3cc4ccccn4n3)o2)c(C(F)(F)F)n1 [Example 679, (R)-(5-(1-methyl-3-(trifluoromethyl)-1H-pyrazol-4-yl)-1,3,4-oxadiazol-2-yl)(4-(pyrazolo[1,5-a]pyridin-2-yl)-6,7-dihydro-1H-imidazo[4,5-c]pyridin-5(4H)-yl)methanone] | > 5000
24 | Cn1nc(Cl)cc1C(=O)N1CCc2[nH]cnc2[C@H]1c1cc2ccccn2n1 [Example 680, (S)-(3-chloro-1-methyl-1H-pyrazol-5-yl)(4-(pyrazolo[1,5-a]pyridin-2-yl)-6,7-dihydro-1H-imidazo[4,5-c]pyridin-5(4H)-yl)methanone] | < 500
25 | N#Cc1ncoc1C(=O)N1CCc2[nH]cnc2[C@@H]1c1cc2ccc(Br)cn2n1 [Example 683, (R)-5-(4-(6-bromopyrazolo[1,5-a]pyridin-2-yl)-4,5,6,7-tetrahydro-1H-imidazo[4,5-c]pyridine-5-carbonyl)oxazole-4-carbonitrile] | > 5000
26 | N#Cc1ncoc1C(=O)N1CCc2[nH]cnc2[C@H]1c1cc2ccc(Cl)cn2n1 [Example 684, (S)-5-(4-(6-chloropyrazolo[1,5-a]pyridin-2-yl)-4,5,6,7-tetrahydro-1H-imidazo[4,5-c]pyridine-5-carbonyl)oxazole-4-carbonitrile] | 500 to 1000
27 | N#Cc1ncoc1C(=O)N1CCc2[nH]cnc2[C@H]1c1cc2c(Cl)cccn2n1 [Example 686, (S)-5-(4-(4-chloropyrazolo[1,5-a]pyridin-2-yl)-4,5,6,7-tetrahydro-1H-imidazo[4,5-c]pyridine-5-carbonyl)oxazole-4-carbonitrile] | < 500
